In ChEMBL document CHEMBL1833803, “Discovery of 1-amino-5H-pyrido[4,3-b]indol-4-carboxamide inhibitors of Janus kinase 2 (JAK2) for the treatment of myeloproliferative disorders” (J Med Chem, 2011):
Converted amounts (≈) assume the structure as drawn.

Columns and labels:
[1] = target: T1, Tyrosine-protein kinase JAK2 (Homo sapiens, UniProt O60674, V617F); assay: Inhibition of JAK2 V617F mutant
[2] = target: T1, Tyrosine-protein kinase JAK2; assay: Inhibition of JAK2 V617F mutant-mediated STAT5 phosphorylation in mouse BAF3 cells; format: cell-based
CYP3A4 = CYP3A4 (Homo sapiens, UniProt P08684); assay: Inhibition of CYP3A4 at 10 uM; format: ADME
[3] = Half life in rat at 1 mg/kg, iv; format: ADME, organism-based; design: dose 1 mg/kg, route intravenous; details: in vivo
[4] = target: T2, Tyrosine-protein kinase JAK2 (Homo sapiens, UniProt O60674); assay: Inhibition of JAK2-mediated STAT5 phosphorylation in human HEL 92.1.7 irf1-bla cells; format: cell-based
[5] = Clearance in rat at 1 mg/kg, iv; format: ADME, organism-based; design: dose 1 mg/kg, route intravenous; details: in vivo
CYP2C9 = CYP2C9 (Homo sapiens, UniProt P11712); assay: Inhibition of CYP2C9 at 10 uM; format: ADME
[6] = target: Potassium voltage-gated channel subfamily E member 1 (Homo sapiens, UniProt P15382); assay: Inhibition of Iks channel
[7] = target: Voltage-dependent L-type calcium channel subunit alpha-1C (Rattus norvegicus, UniProt P22002); assay: Inhibition of rat CaV1.2
[8] = target: Sodium channel protein type 5 subunit alpha (Homo sapiens, UniProt Q14524); assay: Inhibition of NaV1.5
Cytochrome P450 3A4 = Cytochrome P450 3A4 (Homo sapiens, UniProt P08684); assay: Inhibition of CYP3A4; format: ADME
Cytochrome P450 2C9 = Cytochrome P450 2C9 (Homo sapiens, UniProt P11712); assay: Inhibition of CYP2C9; format: ADME
Cytochrome P450 2D6 = Cytochrome P450 2D6 (Homo sapiens, UniProt P10635); assay: Inhibition of CYP2D6; format: ADME
Rattus norvegicus [9] = assay: Dose normalized AUC in rat at 1 mg/kg, iv; format: ADME, organism-based; design: dose 1 mg/kg, route intravenous; details: in vivo
[10] = Plasma clearance in rat at 1 mg/kg, iv; format: ADME, organism-based; design: dose 1 mg/kg, route intravenous
[11] = Volume of distribution at steady state in rat at 1 mg/kg, iv; format: ADME, organism-based; design: dose 1 mg/kg, route intravenous; details: in vivo, read-out: Vdss
Canis familiaris [12] = assay: Dose normalized AUC in dog at 0.5 mg/kg, iv; format: ADME, organism-based, Canis lupus familiaris; design: dose 0.5 mg/kg, route intravenous; details: in vivo
[13] = Plasma clearance in dog at 0.5 mg/kg, iv; format: ADME, organism-based, Canis lupus familiaris; design: dose 0.5 mg/kg, route intravenous
[14] = Volume of distribution at steady state in dog at 0.5 mg/kg, iv; format: ADME, organism-based, Canis lupus familiaris; design: dose 0.5 mg/kg, route intravenous; details: in vivo, read-out: Vdss
[15] = Half life in dog at 0.5 mg/kg, iv; format: ADME, organism-based, Canis lupus familiaris; design: dose 0.5 mg/kg, route intravenous; details: in vivo
Rhesus monkey [16] = assay: Dose normalized AUC in monkey at 0.5 mg/kg, iv; format: ADME, organism-based, Macaca mulatta; design: dose 0.5 mg/kg, route intravenous; details: in vivo
[17] = Plasma clearance in monkey at 0.5 mg/kg, iv; format: ADME, organism-based, Macaca mulatta; design: dose 0.5 mg/kg, route intravenous; details: rhesus monkey
[18] = Volume of distribution at steady state in monkey at 0.5 mg/kg, iv; format: ADME, organism-based, Macaca mulatta; design: dose 0.5 mg/kg, route intravenous; details: rhesus monkey, in vivo, read-out: Vdss
[19] = Half life in monkey at 0.5 mg/kg, iv; format: ADME, organism-based, Macaca mulatta; design: dose 0.5 mg/kg, route intravenous; details: rhesus monkey, in vivo
Rattus norvegicus [20] = assay: Dose normalized AUC in rat at 2 mg/kg, po; format: ADME, organism-based; design: dose 2 mg/kg, route oral; details: in vivo
[21] = Cmax in rat at 2 mg/kg, po; format: ADME, organism-based; design: dose 2 mg/kg, route oral; details: in vivo
[22] = Tmax in rat at 2 mg/kg, po; format: ADME, organism-based; design: dose 2 mg/kg, route oral; details: in vivo
[23] = Oral bioavailability in rat at 2 mg/kg; format: ADME, organism-based; details: in vivo
Canis familiaris [24] = assay: Dose normalized AUC in dog at 1 mg/kg, po; format: ADME, organism-based, Canis lupus familiaris; design: dose 1 mg/kg, route oral; details: in vivo
[25] = Cmax in dog at 1 mg/kg, po; format: ADME, organism-based, Canis lupus familiaris; design: dose 1 mg/kg, route oral; details: in vivo
[26] = Tmax in dog at 1 mg/kg, po; format: ADME, organism-based, Canis lupus familiaris; design: dose 1 mg/kg, route oral; details: in vivo
[27] = Oral bioavailability in dog at 1 mg/kg; format: ADME, organism-based, Canis lupus familiaris; details: in vivo
Rhesus monkey [28] = assay: Dose normalized AUC in monkey at 1 mg/kg, po; format: ADME, organism-based, Macaca mulatta; design: dose 1 mg/kg, route oral; details: in vivo
[29] = Cmax in monkey at 1 mg/kg, po; format: ADME, organism-based, Macaca mulatta; design: dose 1 mg/kg, route oral; details: rhesus monkey, in vivo
[30] = Tmax in monkey at 1 mg/kg, po; format: ADME, organism-based, Macaca mulatta; design: dose 1 mg/kg, route oral; details: rhesus monkey, in vivo
[31] = Oral bioavailability in monkey at 1 mg/kg; format: ADME, organism-based, Macaca mulatta; details: rhesus monkey, in vivo
Mus musculus [32] = assay: Reduction in pSTAT5 concentration in po dosed darbepoetin-stimulated C57B1/6 mouse
Mus musculus [33] = species on record: Mus musculus; assay: Prevention of darbepoetin-induced elevation of hematocrit in C57/BL6 mouse PV model; format: functional, organism-based; details: C57Bl/6
[34] = target: T2, Tyrosine-protein kinase JAK2; assay: Inhibition of JAK2 using biotin-EQEDEPEGDYFEWLE- NH2 as substrate
Mus musculus [35] = species on record: Mus musculus; assay: Prevention of darbepoetin-induced increase in spleen weight in C57/BL6 mouse PV model; format: functional, organism-based; details: C57Bl/6
[36] = target: Tyrosine-protein kinase JAK1 (Homo sapiens, UniProt P23458); assay: Inhibition of JAK1
[37] = target: Non-receptor tyrosine-protein kinase TYK2 (Homo sapiens, UniProt P29597); assay: Inhibition of TYK2
[38] = target: T2, Tyrosine-protein kinase JAK2; assay: Inhibition of JAK2
[39] = target: T3, Tyrosine-protein kinase JAK3 (Homo sapiens, UniProt P52333); assay: Inhibition of JAK3
T3 sequence (P52333 whole entry): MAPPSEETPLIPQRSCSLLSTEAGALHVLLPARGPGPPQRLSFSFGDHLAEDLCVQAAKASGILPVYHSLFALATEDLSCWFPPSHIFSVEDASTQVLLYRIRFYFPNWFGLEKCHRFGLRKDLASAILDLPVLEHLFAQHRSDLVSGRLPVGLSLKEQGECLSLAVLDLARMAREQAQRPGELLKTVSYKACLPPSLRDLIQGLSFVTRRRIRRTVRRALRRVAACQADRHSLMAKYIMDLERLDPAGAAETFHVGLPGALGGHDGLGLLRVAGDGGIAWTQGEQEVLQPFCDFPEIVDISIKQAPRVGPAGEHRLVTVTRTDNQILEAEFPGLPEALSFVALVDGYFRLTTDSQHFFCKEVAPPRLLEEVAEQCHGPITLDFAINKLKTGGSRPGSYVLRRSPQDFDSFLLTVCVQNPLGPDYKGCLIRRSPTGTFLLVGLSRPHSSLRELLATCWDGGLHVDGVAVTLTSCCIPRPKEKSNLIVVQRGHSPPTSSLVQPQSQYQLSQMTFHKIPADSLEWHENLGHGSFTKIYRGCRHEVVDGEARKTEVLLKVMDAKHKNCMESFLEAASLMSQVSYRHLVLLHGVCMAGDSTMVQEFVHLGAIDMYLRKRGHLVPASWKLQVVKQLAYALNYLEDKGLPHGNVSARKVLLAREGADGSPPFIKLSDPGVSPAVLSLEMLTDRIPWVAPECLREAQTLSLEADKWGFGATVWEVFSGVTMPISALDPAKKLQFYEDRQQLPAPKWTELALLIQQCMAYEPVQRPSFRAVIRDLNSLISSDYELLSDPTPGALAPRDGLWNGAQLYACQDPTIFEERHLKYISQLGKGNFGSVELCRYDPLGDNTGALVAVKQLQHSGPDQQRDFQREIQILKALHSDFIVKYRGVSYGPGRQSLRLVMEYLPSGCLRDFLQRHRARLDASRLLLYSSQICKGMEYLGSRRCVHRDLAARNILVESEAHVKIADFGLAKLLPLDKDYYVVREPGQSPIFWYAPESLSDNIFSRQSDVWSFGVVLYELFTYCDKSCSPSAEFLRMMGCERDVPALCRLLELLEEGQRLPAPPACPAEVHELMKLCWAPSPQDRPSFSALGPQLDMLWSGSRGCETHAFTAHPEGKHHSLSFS

[40] = Selectivity ratio of IC50 for JAK3 to IC50 for JAK2
[41] = Plasma clearance in rat at 2 mg/kg, iv and 4 mg/kg, po; format: ADME, organism-based
[42] = Oral bioavailability in rat at 4 mg/kg; format: ADME, organism-based; details: in vivo
[43] = Lipophilicity, log D of the compound at pH 7.4; format: physicochemical; details: buffer
[44] = Aqueous solubility of the compound; format: physicochemical; details: buffer
[45] = Plasma clearance in rat at 1 mg/kg, iv and 2 mg/kg, po; format: ADME, organism-based
[46] = target: T2, Tyrosine-protein kinase JAK2; assay: Competitive inhibition of JAK2 in the presence of 15 uM ATP
[47] = target: T2, Tyrosine-protein kinase JAK2; assay: Competitive inhibition of JAK2 in the presence of 2 mM ATP

T2 sequence (O60674 whole entry): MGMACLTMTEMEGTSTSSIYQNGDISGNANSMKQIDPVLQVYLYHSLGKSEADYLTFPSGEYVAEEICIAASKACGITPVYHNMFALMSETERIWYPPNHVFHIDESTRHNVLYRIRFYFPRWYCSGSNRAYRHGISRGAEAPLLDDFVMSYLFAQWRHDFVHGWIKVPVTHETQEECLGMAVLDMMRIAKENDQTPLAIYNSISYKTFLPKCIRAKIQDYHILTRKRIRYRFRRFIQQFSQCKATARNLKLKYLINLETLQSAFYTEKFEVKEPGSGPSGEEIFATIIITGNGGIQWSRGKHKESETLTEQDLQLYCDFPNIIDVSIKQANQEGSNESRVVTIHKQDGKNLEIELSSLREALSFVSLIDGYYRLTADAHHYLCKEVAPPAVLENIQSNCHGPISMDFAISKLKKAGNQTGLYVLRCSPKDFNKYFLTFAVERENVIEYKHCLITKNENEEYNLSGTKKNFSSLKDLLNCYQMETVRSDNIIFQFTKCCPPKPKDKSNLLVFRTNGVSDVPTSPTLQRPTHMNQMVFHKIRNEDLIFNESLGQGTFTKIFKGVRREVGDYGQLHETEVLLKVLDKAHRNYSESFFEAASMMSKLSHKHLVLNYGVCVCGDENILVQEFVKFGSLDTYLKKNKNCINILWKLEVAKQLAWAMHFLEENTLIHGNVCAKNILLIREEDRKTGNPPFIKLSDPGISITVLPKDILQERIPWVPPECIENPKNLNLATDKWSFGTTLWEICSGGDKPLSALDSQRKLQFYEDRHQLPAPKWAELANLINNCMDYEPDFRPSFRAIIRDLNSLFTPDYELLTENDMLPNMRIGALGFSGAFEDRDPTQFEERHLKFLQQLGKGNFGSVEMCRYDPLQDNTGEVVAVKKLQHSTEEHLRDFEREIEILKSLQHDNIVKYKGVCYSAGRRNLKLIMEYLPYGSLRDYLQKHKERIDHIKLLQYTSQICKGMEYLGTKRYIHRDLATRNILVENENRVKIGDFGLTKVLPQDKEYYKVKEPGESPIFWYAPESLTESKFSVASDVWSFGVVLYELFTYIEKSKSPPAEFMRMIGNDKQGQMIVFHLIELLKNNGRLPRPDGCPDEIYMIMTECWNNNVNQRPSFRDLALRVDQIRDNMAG
T1 sequence (O60674 whole entry V617F): as the sequence (O60674 whole entry) above, with V617F counted along it
Sequence of Sodium channel protein type 5 subunit alpha (Q14524 whole entry): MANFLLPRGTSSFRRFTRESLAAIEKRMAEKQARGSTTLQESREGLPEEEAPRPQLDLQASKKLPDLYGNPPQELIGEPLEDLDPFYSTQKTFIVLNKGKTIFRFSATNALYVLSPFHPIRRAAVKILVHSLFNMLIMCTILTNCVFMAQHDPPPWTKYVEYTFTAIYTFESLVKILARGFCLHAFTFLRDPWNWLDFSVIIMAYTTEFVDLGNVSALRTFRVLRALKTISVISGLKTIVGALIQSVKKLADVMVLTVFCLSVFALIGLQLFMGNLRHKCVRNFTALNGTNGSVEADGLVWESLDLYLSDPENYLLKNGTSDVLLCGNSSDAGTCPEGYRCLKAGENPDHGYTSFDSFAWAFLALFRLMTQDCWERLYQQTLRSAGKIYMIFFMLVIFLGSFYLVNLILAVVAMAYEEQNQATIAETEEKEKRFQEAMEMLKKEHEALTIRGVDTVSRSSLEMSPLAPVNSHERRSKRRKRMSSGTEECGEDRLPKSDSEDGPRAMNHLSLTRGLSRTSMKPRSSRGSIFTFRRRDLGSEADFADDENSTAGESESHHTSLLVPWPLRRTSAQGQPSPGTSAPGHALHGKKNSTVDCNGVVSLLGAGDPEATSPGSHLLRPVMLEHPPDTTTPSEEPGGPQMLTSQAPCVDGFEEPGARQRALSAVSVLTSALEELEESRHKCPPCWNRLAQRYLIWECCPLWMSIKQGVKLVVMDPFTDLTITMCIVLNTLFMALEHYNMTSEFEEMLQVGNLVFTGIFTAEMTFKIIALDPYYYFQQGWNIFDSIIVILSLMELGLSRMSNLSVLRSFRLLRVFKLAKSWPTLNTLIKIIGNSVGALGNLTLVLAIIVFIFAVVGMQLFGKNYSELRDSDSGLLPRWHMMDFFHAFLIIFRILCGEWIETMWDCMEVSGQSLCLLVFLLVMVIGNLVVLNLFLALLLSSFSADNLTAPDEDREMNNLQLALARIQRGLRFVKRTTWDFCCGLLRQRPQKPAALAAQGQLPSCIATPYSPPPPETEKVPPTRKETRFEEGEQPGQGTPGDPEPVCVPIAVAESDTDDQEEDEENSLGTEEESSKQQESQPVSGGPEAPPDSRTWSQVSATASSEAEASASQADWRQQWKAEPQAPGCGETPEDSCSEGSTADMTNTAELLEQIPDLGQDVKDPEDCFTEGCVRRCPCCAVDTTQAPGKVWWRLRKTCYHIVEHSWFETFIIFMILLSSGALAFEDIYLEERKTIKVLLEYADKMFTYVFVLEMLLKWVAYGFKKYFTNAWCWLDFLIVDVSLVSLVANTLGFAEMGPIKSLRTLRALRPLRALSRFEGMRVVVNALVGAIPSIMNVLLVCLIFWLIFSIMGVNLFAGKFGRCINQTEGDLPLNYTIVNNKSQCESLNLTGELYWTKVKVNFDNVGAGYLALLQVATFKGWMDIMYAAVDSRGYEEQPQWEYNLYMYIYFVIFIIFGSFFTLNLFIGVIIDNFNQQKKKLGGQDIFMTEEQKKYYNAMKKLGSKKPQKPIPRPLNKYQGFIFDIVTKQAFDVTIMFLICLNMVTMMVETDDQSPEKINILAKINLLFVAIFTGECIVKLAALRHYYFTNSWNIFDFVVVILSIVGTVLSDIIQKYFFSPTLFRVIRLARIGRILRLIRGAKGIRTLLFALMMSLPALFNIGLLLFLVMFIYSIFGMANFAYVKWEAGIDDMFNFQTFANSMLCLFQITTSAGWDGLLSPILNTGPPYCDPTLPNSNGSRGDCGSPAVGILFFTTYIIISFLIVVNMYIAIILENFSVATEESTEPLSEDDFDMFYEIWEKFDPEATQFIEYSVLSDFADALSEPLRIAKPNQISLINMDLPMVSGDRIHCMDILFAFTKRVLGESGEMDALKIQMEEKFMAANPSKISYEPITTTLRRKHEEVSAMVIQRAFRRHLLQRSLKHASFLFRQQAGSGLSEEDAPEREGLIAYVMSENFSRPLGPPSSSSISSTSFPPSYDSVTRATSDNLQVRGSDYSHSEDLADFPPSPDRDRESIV
Sequence of CYP3A4 (P08684 whole entry): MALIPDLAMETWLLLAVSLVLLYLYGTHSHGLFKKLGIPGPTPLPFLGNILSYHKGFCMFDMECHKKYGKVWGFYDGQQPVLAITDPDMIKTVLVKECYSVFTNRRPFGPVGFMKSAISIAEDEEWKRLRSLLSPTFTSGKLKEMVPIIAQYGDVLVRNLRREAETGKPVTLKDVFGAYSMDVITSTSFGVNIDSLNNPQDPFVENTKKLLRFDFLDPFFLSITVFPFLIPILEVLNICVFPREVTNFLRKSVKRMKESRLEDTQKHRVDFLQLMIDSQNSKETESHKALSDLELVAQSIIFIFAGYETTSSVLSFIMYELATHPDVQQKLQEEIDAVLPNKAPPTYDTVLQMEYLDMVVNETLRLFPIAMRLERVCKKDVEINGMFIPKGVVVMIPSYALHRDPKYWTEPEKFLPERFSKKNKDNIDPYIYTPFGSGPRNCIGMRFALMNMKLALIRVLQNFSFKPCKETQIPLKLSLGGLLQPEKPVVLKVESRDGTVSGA
Sequence of Cytochrome P450 3A4 (P08684 whole entry): as above
Sequence of CYP2C9 (P11712 whole entry): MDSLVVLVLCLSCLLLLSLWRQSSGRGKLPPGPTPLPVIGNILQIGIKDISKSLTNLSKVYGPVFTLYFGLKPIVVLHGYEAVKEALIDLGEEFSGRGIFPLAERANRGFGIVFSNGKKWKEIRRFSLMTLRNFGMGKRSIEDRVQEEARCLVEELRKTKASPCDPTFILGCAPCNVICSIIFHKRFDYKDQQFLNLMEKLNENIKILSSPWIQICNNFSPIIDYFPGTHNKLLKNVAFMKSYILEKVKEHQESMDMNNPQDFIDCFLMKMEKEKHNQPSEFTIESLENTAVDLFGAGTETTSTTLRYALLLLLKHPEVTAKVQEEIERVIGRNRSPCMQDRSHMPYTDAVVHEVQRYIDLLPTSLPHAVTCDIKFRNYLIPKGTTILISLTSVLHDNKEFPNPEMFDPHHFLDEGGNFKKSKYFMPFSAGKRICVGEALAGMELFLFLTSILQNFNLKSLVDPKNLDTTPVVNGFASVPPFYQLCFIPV
Sequence of Cytochrome P450 2C9 (P11712 whole entry): as above

NC(=O)c1cnc(N[C@H](C2CC2)C(F)(F)F)c2c1[nH]c1cc(-c3cnc(N)nc3)ccc12
IC50 [1]: 0.4 nM
IC50 [2]: 11 nM
inhibition at 10 µM (CYP3A4): 30%
half-life [3]: 4.5 h
IC50 [4]: 25 nM
clearance [5]: 7 mL/min/kg
inhibition at 10 µM (CYP2C9): 34%
IC50 [6]: > 10000 nM
IC50 [7]: > 30000 nM
IC50 [8]: > 30000 nM
IC50 (Cytochrome P450 3A4): > 75000 nM
IC50 (Cytochrome P450 2C9): > 75000 nM
IC50 (Cytochrome P450 2D6): > 75000 nM
AUC/dose (Rattus norvegicus [9]): 5.3 µM·h/mg/kg
clearance [10]: 7.4 mL/min/kg
Vd [11]: 2.5 L/kg
AUC/dose (Canis familiaris [12]): 2.4 µM·h/mg/kg
clearance [13]: 18 mL/min/kg
Vd [14]: 6.1 L/kg
half-life [15]: 5.2 h
AUC/dose (Rhesus monkey [16]): 5.2 µM·h/mg/kg
clearance [17]: 7.4 mL/min/kg
Vd [18]: 4.7 L/kg
half-life [19]: 7.3 h
AUC/dose (Rattus norvegicus [20]): 3.4 µM·h/mg/kg
Cmax [21]: 600 nM
Tmax [22]: 6 h
bioavailability [23]: 67%
AUC/dose (Canis familiaris [24]): 2.5 µM·h/mg/kg
Cmax [25]: 300 nM
Tmax [26]: 5.1 h
bioavailability [27]: 120%
AUC/dose (Rhesus monkey [28]): 3.4 µM·h/mg/kg
Cmax [29]: 200 nM
Tmax [30]: 6 h
bioavailability [31]: 66%
IC50 (Mus musculus [32]): 1200 nM
Activity (Mus musculus [33]): Dose-dependent effect
IC50 [34]: 0.8 nM
Activity (Mus musculus [35]): Dose-dependent effect

O=c1[nH]ccc2c3[nH]c(-c4ccccc4Cl)nc3c3ccc(F)cc3c12
IC50 [36]: 2 nM
IC50 [37]: 7 nM
IC50 [38]: 3 nM
IC50 [39]: 77 nM
Ratio IC50 [40]: 26
clearance [41]: 5.4 mL/min/kg
bioavailability [42]: 100%
logD [43]: 3.6
solubility [44]: < 2 µM

O=c1[nH]ccc2c1c1cc(F)ccc1n2-c1ccccc1
IC50 [38]: 1100 nM
IC50 [39]: 720 nM
Ratio IC50 [40]: 0.7
clearance [45]: 13 mL/min/kg
logD [43]: 4.3
bioavailability [23]: 89%

CCNc1ncc(C(N)=O)c2[nH]c3ccc(F)cc3c12
IC50 [38]: 230 nM
IC50 [39]: 6800 nM
Ratio IC50 [40]: 30
IC50 [46]: 230 nM
IC50 [47]: > 15000 nM
logD [43]: 2
solubility [44]: 6 µM (≈ 1.63 µg/mL)
bioavailability [23]: 87%
IC50 [34]: 230 nM
